Data from PMC9181926, “Synthesis and Antiproliferative Activity of Novel Dehydroabietic Acid-Chalcone Hybrids” (Molecules, 2022).
Several values for one entry are separate records, joined by “and”; a condition that tells them apart may be missing. Identical values can stand only once. Each block holds one molecule with its values, some of them ahead of it.

Columns and labels:
Assay type in all cases: cell-based, human
[1] = tested on: normal primary fibroblasts (FB); assay: cells; details: for IC50: Fibroblast, normal primary human fibroblasts, 48 h incubation, cell counting
Description: (§1) Primary skin normal fibroblasts were kindly provided by Prof. Emer.

MCF-7 cells = assay: Antiproliferation assay (cell counting, 48 h) in MCF-7 breast cancer cells; details: for Selectivity Index for MCF-7: FB IC50 relative to MCF-7 IC50; for IC50: MCF-7 cells, 48 h incubation, cell counting
Description: (§2) Regarding the different characteristics of the used breast cancer cell lines, we can notice that MDA-MB-231 and Hs578T are triple negative.
as §1

Hs578T cells = assay: Antiproliferation assay (cell counting, 48 h) in Hs578T breast cancer cells; details: for Selectivity Index for Hs578T: FB IC50 relative to Hs578T IC50; for IC50: Hs578T cells, 48 h incubation, cell counting
Description: as §2, §1

MDA-MB-231 cells = assay: Antiproliferation assay (cell counting, 48 h) in MDA-MB-231 breast cancer cells; details: for Selectivity Index for MDA-MB-231: FB IC50 relative to MDA-MB-231 IC50; for IC50: MDA-MB-231 cells, 48 h incubation, cell counting
Description: as §2, §1

IC50 (MCF-7 cells; Homo sapiens, MCF7): 5.37 ± 1.16 µM | IC50 (Hs578T cells; Homo sapiens, Hs-578T): 7.38 ± 2.49 µM | IC50 (MDA-MB-231 cells; Homo sapiens): 19.2 ± 0.39 µM
Molecule: O=c1[nH]cc(F)c(=O)[nH]1 [Compound 5-FU, 5-fluorouracil, reference compound]
IC50 [1]: 9.43 ± 0.8 µM | Selectivity Index for MCF-7 (MCF-7 cells): 1.76 | Selectivity Index for Hs578T (Hs578T cells): 1.28 | Selectivity Index for MDA-MB-231 (MDA-MB-231 cells): 0.49

Molecule: COC(=O)[C@]1(C)CCC[C@]2(C)c3cc(O)c(C(C)=O)cc3CCC12 (some centres unmarked) [Compound 28]
IC50 (MCF-7 cells; Homo sapiens, MCF7): 207 ± 7.28 µM | IC50 (Hs578T cells; Homo sapiens, Hs-578T): 136 ± 2.47 µM | IC50 (MDA-MB-231 cells; Homo sapiens): 115 ± 40.1 µM

IC50 (MCF-7 cells; Homo sapiens, MCF7): > 75 µM | IC50 (Hs578T cells; Homo sapiens, Hs-578T): > 75 µM | IC50 (MDA-MB-231 cells; Homo sapiens): > 75 µM
Molecule: COC(=O)[C@]1(C)CCC[C@]2(C)c3cc(OC)c(C(=O)/C=C/c4cccnc4)cc3CCC12 (stereo partly drawn) [Compound 32, (1R,4aS)-methyl 6-methoxy-1,4a-dimethyl-7-((E)-3-(pyridin-3-yl)acryloyl)-1,2,3,4,4a, 9,10,10a-octahydrophenanthrene-1-carboxylate]

Molecule: COC(=O)[C@]1(C)CCC[C@]2(C)c3cc(O)c(C(=O)/C=C/c4ccncc4)cc3CCC12 (stereo partly drawn) [Compound 35, (1R,4aS)-methyl 6-hydroxy-1,4a-dimethyl-7-((E)-3-(pyridin-4-yl)acryloyl)-1,2,3,4,4a, 9,10,10a-octahydrophenanthrene-1-carboxylate]
IC50 [1]: 33.8 ± 6.63 µM | Selectivity Index for MCF-7 (MCF-7 cells): 3.42 | IC50 (MCF-7 cells; Homo sapiens, MCF7): 9.9 ± 0.05 µM | Selectivity Index for Hs578T (Hs578T cells): 3.89 | IC50 (Hs578T cells; Homo sapiens, Hs-578T): 8.69 ± 0.55 µM | Selectivity Index for MDA-MB-231 (MDA-MB-231 cells): 0.91 | IC50 (MDA-MB-231 cells; Homo sapiens): 37.1 ± 1.82 µM

Molecule: COC(=O)[C@]1(C)CCC[C@]2(C)c3cc(O)c(C(=O)/C=C/c4ccc5ccccc5n4)cc3CCC12 (stereo partly drawn) [Compound 38, (1R,4aS)-methyl 6-hydroxy-1,4a-dimethyl-7-((E)-3-(quinolin-2-yl)acryloyl)-1,2,3,4,4a, 9,10,10a-octahydrophenanthrene-1-carboxylate]
times less toxic than 5-FU [1]: 12.9 times | IC50 [1]: 161 ± 13.1 µM | Selectivity Index for MCF-7 (MCF-7 cells): 22.7 and 22.75 | IC50 (MCF-7 cells; Homo sapiens, MCF7): 7.06 ± 1.71 µM | IC50 (Hs578T cells; Homo sapiens, Hs-578T): > 75 µM | Selectivity Index for MDA-MB-231 (MDA-MB-231 cells): 2.20 | IC50 (MDA-MB-231 cells; Homo sapiens): 73 ± 2.31 µM

Molecule: COC(=O)[C@]1(C)CCC[C@]2(C)c3cc(O)c(C(=O)/C=C/c4cnc5ccccc5c4)cc3CCC12 (stereo partly drawn) [Compound 39, (1R,4aS)-methyl 6-hydroxy-1,4a-dimethyl-7-((E)-3-(quinolin-3-yl)acryloyl)-1,2,3,4,4a, 9,10,10a-octahydrophenanthrene-1-carboxylate]
IC50 [1]: 32.9 ± 2.27 µM | Selectivity Index for MCF-7 (MCF-7 cells): 2.86 | IC50 (MCF-7 cells; Homo sapiens, MCF7): 11.5 ± 1.02 µM | Selectivity Index for Hs578T (Hs578T cells): 2.09 | IC50 (Hs578T cells; Homo sapiens, Hs-578T): 15.7 ± 2.74 µM | IC50 (MDA-MB-231 cells; Homo sapiens): > 75 µM

Molecule: COC(=O)[C@]1(C)CCC[C@]2(C)c3cc(O)c(C(=O)/C=C/c4ccnc5ccccc45)cc3CCC12 (stereo partly drawn) [Compound 40, (1R,4aS)-methyl 6-hydroxy-1,4a-dimethyl-7-((E)-3-(quinolin-4-yl)acryloyl)-1,2,3,4,4a, 9,10,10a-octahydrophenanthrene-1-carboxylate]
IC50 [1]: 92.1 ± 5.47 µM | IC50 (MCF-7 cells; Homo sapiens, MCF7): > 75 µM | IC50 (Hs578T cells; Homo sapiens, Hs-578T): > 75 µM | IC50 (MDA-MB-231 cells; Homo sapiens): > 75 µM

Molecule: COC(=O)[C@]1(C)CCC[C@]2(C)c3cc(O)c(C(=O)/C=C/c4ccsc4)cc3CCC12 (stereo partly drawn) [Compound 44, (1R,4aS)-methyl 6-hydroxy-1,4a-dimethyl-7-((E)-3-(thiophen-3-yl)acryloyl)-1,2,3,4,4a,9,10,10a-octahydrophenanthrene-1-carboxylate]
IC50 [1]: 44 ± 1.84 µM | Selectivity Index for MCF-7 (MCF-7 cells): 12.76 | IC50 (MCF-7 cells; Homo sapiens, MCF7): 3.45 ± 0.36 µM | Selectivity Index for Hs578T (Hs578T cells): 2.05 | IC50 (Hs578T cells; Homo sapiens, Hs-578T): 21.5 ± 1.2 µM | Selectivity Index for MDA-MB-231 (MDA-MB-231 cells): 1.75 | IC50 (MDA-MB-231 cells; Homo sapiens): 25.2 ± 0.84 µM

Molecule: COC(=O)[C@]1(C)CCC[C@]2(C)c3cc(O)c(C(=O)/C=C/c4ccc(Br)s4)cc3CCC12 (stereo partly drawn) [Compound 45, (1R,4aS)-methyl 7-((E)-3-(5-bromothiophen-2-yl)acryloyl)-6-hydroxy-1,4a-dimethyl-1,2,3,4,4a,9,10,10a-octahydrophenanthrene-1-carboxylate]
IC50 (MCF-7 cells; Homo sapiens, MCF7): 29.9 ± 5.26 µM | IC50 (Hs578T cells; Homo sapiens, Hs-578T): > 75 µM | IC50 (MDA-MB-231 cells; Homo sapiens): > 75 µM

Molecule: COC(=O)[C@]1(C)CCC[C@]2(C)c3cc(O)c(C(=O)/C=C/c4c[nH]c5ccccc45)cc3CCC12 (stereo partly drawn) [Compound 46, (1R,4aS)-methyl 7-((E)-3-(1H-indol-3-yl)acryloyl)-6-hydroxy-1,4a-dimethyl-1,2,3,4,4a,9,10,10a-octahydrophenanthrene-1-carboxylate]
IC50 (MCF-7 cells; Homo sapiens, MCF7): > 75 µM | IC50 (Hs578T cells; Homo sapiens, Hs-578T): > 75 µM | IC50 (MDA-MB-231 cells; Homo sapiens): > 75 µM

Molecule: COC(=O)[C@]1(C)CCC[C@]2(C)c3cc(O)c(C(=O)/C=C/c4csc5ccccc45)cc3CCC12 (stereo partly drawn) [Compound 47, (1R,4aS)-methyl 7-((E)-3-(benzo[b]thiophen-3-yl)acryloyl)-6-hydroxy-1,4a-dimethyl-1,2,3,4,4a,9,10,10a-octahydrophenanthrene-1-carboxylate]
IC50 (MCF-7 cells; Homo sapiens, MCF7): 12.5 ± 8.43 µM | IC50 (Hs578T cells; Homo sapiens, Hs-578T): > 75 µM | IC50 (MDA-MB-231 cells; Homo sapiens): 40.4 ± 0.67 µM

Molecule: COC(=O)[C@]1(C)CCC[C@]2(C)c3cc(O)c(/C=C/C(=O)c4ccc(Br)s4)cc3CCC12 (stereo partly drawn) [Compound 53, (1R,4aS)-methyl 7-((E)-3-(5-bromothiophen-2-yl)-3-oxoprop-1-en-1-yl)-6-hydroxy-1,4a-dimthyl-1,2,3,4,4a,9,10,10a-octahydrophenanthrene-1-carboxylate]
IC50 (MCF-7 cells; Homo sapiens, MCF7): 41.4 ± 1.74 µM | IC50 (Hs578T cells; Homo sapiens, Hs-578T): 28.4 ± 1.97 µM | IC50 (MDA-MB-231 cells; Homo sapiens): 17.1 ± 0.41 µM

Molecule: (1R,4aS)-6-hydroxy-1,4a-dimethyl-7-((E)-3-(naphthalen-2-yl)acryloyl)-1,2,3,4,4a,9,10, 10a-octahydrophenanthrene-1-carboxylic acid [Compound 37]
IC50 (MCF-7 cells): 11.4 ± 1.55 µM | IC50 (Hs578T cells): > 75 µM | IC50 (MDA-MB-231 cells): > 75 µM

Molecule: (1R,4aS)-methyl 6-hydroxy-1,4a-dimethyl-7-((E)-3-(2,4,5-trifluorophenyl)acryloyl)-1,2,3,4,4a,9,10,10a-octahydrophenanthrene-1-carboxylate [Compound 36]
IC50 (MCF-7 cells): > 75 µM | IC50 (Hs578T cells): > 75 µM | IC50 (MDA-MB-231 cells): > 75 µM

IC50 (MCF-7 cells): 23.9 ± 4.47 µM | IC50 (Hs578T cells): > 75 µM | IC50 (MDA-MB-231 cells): > 75 µM
Molecule: (1R,4aS)-methyl 7-((E)-3-(2-hydroxyphenyl)-3-oxoprop-1-en-1-yl)-6-methoxy-1,4a-dimethyl-1,2,3,4,4a,9,10,10a-octahydrophenanthrene-1-carboxylate [Compound 31]

Molecule: (1R,4aS)-methyl 7-((E)-3-(benzofuran-2-yl)acryloyl)-6-hydroxy-1,4a-dimethyl-1,2,3, 4,4a,9,10, 10a-octahydrophenanthrene-1-carboxylate [Compound 52]
IC50 (MCF-7 cells): > 75 µM | IC50 (Hs578T cells): 60.2 ± 6.94 µM | IC50 (MDA-MB-231 cells): > 75 µM

Molecule: (E)-1-((4bS,8R)-3-hydroxy-8-methoxy-4b,8-dimethyl-4b,5,6,7,8,8a,9,10-octahydrophenanthren-2-yl)-3-(pyridin-2-yl)prop-2-en-1-one [Compound 34]
IC50 (MCF-7 cells): 21.4 ± 0.6 µM | IC50 (Hs578T cells): 28.1 ± 7.76 µM | IC50 (MDA-MB-231 cells): > 75 µM

Molecule: (E)-3-(furan-2-yl)-1-((4bS,8R)-3-hydroxy-8-methoxy-4b,8-dimethyl-4b,5,6,7,8,8a,9,10-octahydrophenanthren-2-yl)prop-2-en-1-one [Compound 42]
IC50 (MCF-7 cells): 37 ± 6.89 µM | IC50 (Hs578T cells): 43.3 ± 4.32 µM | IC50 (MDA-MB-231 cells): > 75 µM

IC50 (MCF-7 cells): 25.62 ± 0.09 µM | IC50 (Hs578T cells): 23.2 ± 2.5 µM | IC50 (MDA-MB-231 cells): > 75 µM
Molecule: Tert-butyl 4-(4-((E)-3-((4bS,8R)-3-methoxy-8-(methoxycarbonyl)-4b,8-dimethyl-4b,5, 6,7,8,8a,9,10-octahydrophenanthren-2-yl)acryloyl)phenyl)piperazine-1-carboxylate [Compound 48]
